From PMC12114750 (Pharmaceuticals, 2025)
Like-named read-outs stand apart in the source and are kept apart here.

What was measured:
[1] = test system: MCF-7 (breast adenocarcinoma); experiment: cells; format: cell-based; conditions: for IC50: Homo sapiens, MCF7, 24 h, MTT
Procedure: (§1) Breast adenocarcinoma cells (MCF-7; DSMZ: ACC 115), colon adenocarcinoma cells (HTC-15; DSMZ: CCL-225), and prostate cells (DU-145; ATCC: HRB-81) were cultured in RPMI 1640 medium.
(§2) Cells were seeded at an appropriate density to promote optimal growth, and the culture medium was replaced every 48 h. Once cells reached 80–90% confluence, subculture was performed using 0.25% trypsin-EDTA to dissociate the cells, by 2 min and put inside of chamber during 5 min, according to the protocol provided by the biobanks. The cell lines were maintained at 37 °C in a humidified incubator with 5% CO2 and 95% humidity.
(§3) Cells were seeded in 96-well plates (HepG-2: 2.5 ×10^4 cells; HCT-15: 2.5 × 10^4 cells/mL; MCF-7: 2.5 × 10^4 cells/mL; SH-SY5Y: 5.0 × 10^4 cells/mL; FL83B: 5.0 × 10^4 cell/mL; DU-145: 5.0 × 10^4 cell/mL). Cancer cell lines were exposed to compounds (100 μM) for 24 h and vehicle/controls were included to assess potential solvent interference. Cell viability was assessed using MTT assay. Then, the culture medium was removed and 100 μL of MTT (0.5 mg/mL) was added to each cell. Cells were incubated for 1 h in the dark under the same culture condition (37 °C, 5% CO2, 95% humidity). After incubation, the intracellular formazan crystals were solubilized with 100 μL DMSO and, after […], the absorbance was measured at 570 nm using a microplate reader (Synergy H1). […] Results were expressed as a percentage of control untreated cells and the half-maximal inhibitory concentration (IC50) values were determined using nonlinear regression analysis (GraphPad Prism, 8.1, GraphPad Software, San Diego, CA, USA).

[2] = test system: DU-145 (prostate adenocarcinoma); experiment: Cytotoxicity MTT assay, DU-145; format: cell-based, human; conditions: for IC50: 24 h, MTT
Procedure: as §1, §2, §3

[3] = test system: HCT-15 (colorectal adenocarcinoma); experiment: cells; format: cell-based, human; conditions: for IC50: Homo sapiens, HCT-15, 24 h, MTT
Procedure: as §1, §2, §3

[4] = test system: SH-SY5Y neuroblastoma cell line; experiment: Cytotoxicity MTT assay, SH-SY5Y; format: cell-based, human; conditions: 24 h
Procedure: (§4) Hepatocyte cells (FL83B; ATCC: CLR-2390) were cultured in F-12K medium. Human neuroblastoma (SH-SY5Y; ATCC: CRL-2266) cells were cultivated in DMEM/F12 medium. All media were supplemented with fetal bovine serum (10%) (Biowest, Riverside, MO, USA) and 1% antibiotic/antimycotic solution (Biowest, Nuaill’e, France).
as §2, §3

FL83B hepatocytes = experiment: Cytotoxicity (in vitro hepatotoxicity) MTT assay, FL83B; format: cell-based; conditions: 24 h, normal murine hepatocytes
Procedure: as §4, §2, §3

[5] = test system: differentiated SH-SY5Y neuroblastoma cells; experiment: Neuroprotective capacity on a Parkinson's disease cellular model (6-OHDA, MTT); conditions: 6-OHDA 100 μM, 24 h
Procedure: Only at these non-toxic concentrations (0.01–10 µM; 24 h) were the compounds subsequently tested for their neuroprotective potential in an in vitro PD damage model using differentiated SH-SY5Y neuroblastoma cells. The cells, previously differentiated to obtain a dopaminergic neuronal phenotype [52], were treated with compounds in the presence of the neurotoxin 6-OHDA (100 µM). The cells’ viability was estimated using the 3-(4,5-dimethylthiazol-2-yl)−2,5-diphenyltetrazolium bromide (MTT) assay.
Cells were differentiated to obtain dopaminergic neuronal phenotype according to [52], with slight modifications. […] At the end of the 8th day, the cytotoxicity assay was performed.
Cell viability on SH-SY5Y cells was evaluated after exposure to the compounds at 10 μM for 24 h. […] The cell viability and neuroprotective effects were assessed by a colorimetric assay based on the reduction of tetrazolium salts MTT (VWR, Solon, OH, USA) to blue formazan products, according to [61]. Saponin (Sigma-Aldrich, Steinheim, Germany) was used as a positive control for inducing cellular death. The results were expressed as a percentage of the control (untreated cells).

[6] = target: T1, Butyrylcholinesterase (from equine serum) (Equus caballus, UniProt P81908); experiment: biochemical; format: biochemical; conditions: for inhibition at 50 µM: read-out: BChE Inhibition (%); for Ki: read-out: BChE Ki
T1 construct: Butyrylcholinesterase (from equine serum); purchased Sigma; host or cells: equine serum
T1 sequence (P81908 whole entry): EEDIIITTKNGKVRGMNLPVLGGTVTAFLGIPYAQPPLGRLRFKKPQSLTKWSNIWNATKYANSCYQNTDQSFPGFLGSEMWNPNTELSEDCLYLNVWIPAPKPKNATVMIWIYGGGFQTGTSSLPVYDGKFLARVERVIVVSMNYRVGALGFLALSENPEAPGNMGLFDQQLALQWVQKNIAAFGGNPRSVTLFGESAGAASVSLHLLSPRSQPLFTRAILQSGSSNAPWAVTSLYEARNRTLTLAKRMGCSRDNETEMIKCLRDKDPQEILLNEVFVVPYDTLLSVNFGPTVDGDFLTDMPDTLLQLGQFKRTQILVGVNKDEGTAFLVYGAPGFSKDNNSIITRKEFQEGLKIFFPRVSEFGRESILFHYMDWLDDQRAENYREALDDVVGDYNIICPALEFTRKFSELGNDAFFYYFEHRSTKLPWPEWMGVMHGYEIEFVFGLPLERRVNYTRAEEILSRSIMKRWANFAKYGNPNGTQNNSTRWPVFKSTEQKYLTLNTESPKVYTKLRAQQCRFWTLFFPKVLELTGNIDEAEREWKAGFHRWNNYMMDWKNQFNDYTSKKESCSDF
Procedure: (§5) The inhibitory effects of the compounds on AChE and BChE were assessed by Elman’s method.
(§6) Acetylcholinesterase (from Electrophorus electricus), Butyrylcholinesterase (from equine serum), 5,5′-dithiobis-(2-nitrobenzoic acid) (DTNB), and acetylthiocholine iodide were purchased from Sigma.
Preparation of 50 mM Tris-HCl buffer solutions: Tris(hydroxymethyl)-aminomethane (606 mg) was dissolved in bidestilled water (100 mL) and adjusted with HCl to a pH of 8.0 ± 0.1. Buffers were freshly prepared and stored in the refrigerator. AChE solution 2.005 U/mL: The enzyme (271 U/mg, 0.037 mg) was dissolved in freshly prepared buffer pH 8.0 (5 mL) containing NaN3 (0.98 mg). BChE solution 2.040 U/mL: The enzyme (7.54 U/mg, 1.353 mg) was dissolved in freshly prepared buffer pH 8.0 (5 mL) containing NaN3 (0.98 mg). DTNB solution 3 mM: DTNB (23.8 mg) was dissolved in freshly prepared buffer pH 8.0 (20 mL) containing NaCl (116.8 mg) and MgCl2 (38.0 mg). ATChI solution 15 mM: ATChI (43.4 mg) was dissolved in bidestilled water (10 mL). All solutions were stored in Eppendorf caps in the refrigerator or in the freezer, if necessary. […] The final concentrations for the enzymatic assay were obtained by diluting the stock solution with bidistilled water.
BMG Labtech Spectrostar Omega plate reader working in the slow kinetics mode and measuring the absorbance at a distinct wavelength of λ = 412 nm with center scanning mode was used for the enzymatic studies. In short, a mixture of a DTNB solution (125 µL, 3 mM in 50 mM Tris-HCl buffer, pH 8), enzyme solution (25 µL, 2 U/mL), and compounds solutions (25 µL, 3 different concentrations and water as a blank) was incubated at 30 °C for 20 min. The substrate (25 µL, [ATChI] = 0.9375 mM, 0.625 mM, […], 0.1875 mM) was added to start the enzymatic reaction. The absorbance data were recorded under a controlled temperature of 30 °C for 30 min at 1 min intervals at l = 412 nm. The relative inhibition was determined as the quotient of the slopes (compound divided by blank) of the linear ranges (10 repetitions). Galantamin was used as control substance. To determine the kinetic constants, standard linearization methods were used after applying an internal standard (Dixon/Cornish–Bowden plots) (triplicates).

[7] = target: T2, Acetylcholinesterase (from Electrophorus electricus) (Electrophorus electricus, UniProt O42275); experiment: biochemical; conditions: read-out: AChE Inhibition (%)
T2 construct: purchased Sigma
T2 sequence (O42275 24-633): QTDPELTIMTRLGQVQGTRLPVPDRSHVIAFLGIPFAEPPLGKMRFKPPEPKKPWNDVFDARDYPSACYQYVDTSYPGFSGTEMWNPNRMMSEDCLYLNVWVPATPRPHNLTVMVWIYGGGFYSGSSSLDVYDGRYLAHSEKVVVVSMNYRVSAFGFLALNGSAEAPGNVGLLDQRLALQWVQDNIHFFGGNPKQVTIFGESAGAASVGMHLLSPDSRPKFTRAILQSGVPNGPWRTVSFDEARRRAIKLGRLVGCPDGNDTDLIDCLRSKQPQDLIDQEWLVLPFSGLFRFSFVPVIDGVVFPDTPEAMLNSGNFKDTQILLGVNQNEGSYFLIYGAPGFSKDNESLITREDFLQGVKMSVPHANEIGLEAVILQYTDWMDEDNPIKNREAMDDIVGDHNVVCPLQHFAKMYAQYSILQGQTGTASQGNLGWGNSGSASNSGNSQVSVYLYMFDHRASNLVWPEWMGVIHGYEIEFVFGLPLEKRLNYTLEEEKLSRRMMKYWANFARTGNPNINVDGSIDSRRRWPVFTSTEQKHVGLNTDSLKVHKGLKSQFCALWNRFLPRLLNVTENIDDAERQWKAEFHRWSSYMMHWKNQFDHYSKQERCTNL
Procedure: as §5, §6
Preparation of 50 mM Tris-HCl buffer solutions: Tris(hydroxymethyl)-aminomethane (606 mg) was dissolved in bidestilled water (100 mL) and adjusted with HCl to a pH of 8.0 ± 0.1. Buffers were freshly prepared and stored in the refrigerator. AChE solution 2.005 U/mL: The enzyme (271 U/mg, 0.037 mg) was dissolved in freshly prepared buffer pH 8.0 (5 mL) containing NaN3 (0.98 mg). BChE solution 2.040 U/mL: The enzyme (7.54 U/mg, 1.353 mg) was dissolved in freshly prepared buffer pH 8.0 (5 mL) containing NaN3 (0.98 mg). DTNB solution 3 mM: DTNB (23.8 mg) was dissolved in freshly prepared buffer pH 8.0 (20 mL) containing NaCl (116.8 mg) and MgCl2 (38.0 mg). […]
BMG Labtech Spectrostar Omega plate reader working in the slow kinetics mode and measuring the absorbance at a distinct wavelength of λ = 412 nm with center scanning mode was used for the enzymatic studies. […] The absorbance data were recorded under a controlled temperature of 30 °C for 30 min at 1 min intervals at l = 412 nm. The relative inhibition was determined as the quotient of the slopes (compound divided by blank) of the linear ranges (10 repetitions). […]

Row | Structure (SMILES) | IC50 [1] | IC50 ([2]; Homo sapiens, DU-145) | IC50 [3] | IC50 ([4]; Homo sapiens, SH-SY5Y) | IC50 (FL83B hepatocytes; Mus musculus, FL83B) | also measured
1 | CC(=O)O[C@@H]1[C@@H](OCc2ccccc2)[C@@H](CN=[N+]=[N-])O[C@H]1n1ccc(=O)[nH]c1=O [Compound 9, 1-(2-O-Acetyl-5-azido-3-O-benzyl-5-deoxy-β-D-xylofuranosyl)uracil] | > 100 µM | > 100 µM | > 100 µM | > 100 µM |  | 
2 | CC(=O)O[C@@H]1[C@@H](OCc2ccccc2)[C@@H](CN=[N+]=[N-])O[C@H]1n1cnc2ncnc(Cl)c21 [Compound 8, 7-(2-O-acetyl-5-azido-3-O-benzyl-5-deoxy-β-D-xylofuranosyl)-6-chloropurine] | > 100 µM | > 100 µM | > 100 µM | > 100 µM |  | 
3 | N.N.[Cl][Pt][Cl] [Cisplatin, reference compound] |  |  |  |  |  | IC50 (FL83B hepatocytes): 25.7 µM; IC50 [2]: > 100 µM; IC50 [4]: 13.9 µM
4 | NCCc1cc(O)c(O)cc1O [Compound 6-OHDA, 6-hydroxydopamine] |  |  |  |  |  | reduction of differentiated SH-SY5Y cells' viability [5]: 40%; viable cells, 6-OHDA alone ([5]; MTT, % of control): 61.3 ± 1.4 % of viable cells
5 | CC(=O)O[C@@H]1[C@@H](OCc2ccccc2)[C@@H](CNC(=NC(=O)OC(C)(C)C)NC(=O)OC(C)(C)C)O[C@H]1n1ccc(=O)[nH]c1=O [Compound 12, 1-(2-O-Acetyl-3-O-benzyl-5-deoxy-5-[N′,N′′-bis(tert-butoxycarbonyl)]guanidino-β-d-xylofuranosyl)uracil] | > 100 µM | > 100 µM | 76 µM | > 100 µM | > 100 µM | cytotoxicity against HCT-15, fold higher (IC50 fold lower) than 5-fluorouracil [3]: ca. 2 fold
6 | O=c1[nH]cc(F)c(=O)[nH]1 [5-Fluorouracil, reference compound] |  |  | 156 µM |  | > 100 µM | 
7 | CC(=O)O[C@@H]1CN(C(C)=O)C(=O)[C@H](OC(C)=O)[C@H]1OCc1ccccc1 [Compound 3, N-acetyl 2,4-di-O-acetyl-3-O-benzyl-D-xylono-1,5-lactam] | > 100 µM | > 100 µM | > 100 µM | > 100 µM |  | 
8 | COc1ccc2c3c1O[C@H]1C[C@@H](O)C=C[C@@]31CCN(C)C2 [Galantamine, reference compound] |  |  |  |  |  | BChE type of inhibition [6]: competitive; inhibition at 50 µM [6]: 52 ± 0.5%
9 | CC(=O)O[C@@H]1[C@@H](OCc2ccccc2)[C@@H](CN=[N+]=[N-])O[C@H]1n1cnc2c(Cl)ncnc21 [Compound 7, 9-(2-O-Acetyl-5-azido-3-O-benzyl-5-deoxy-β-D-xylofuranosyl)-6-chloropurine] | > 100 µM | > 100 µM | 72.7 µM | > 100 µM | 22.7 µM | 
10 | CC(=O)OC1C(OCc2ccccc2)C(CNC(=NC(=O)OC(C)(C)C)NC(=O)OC(C)(C)C)OC1n1cnc2c(Cl)ncnc21 [Compound 10, 9-{2-O-acetyl-3-O-benzyl-5-deoxy-5-[N′,N′′-bis(tert-butoxycarbonyl)]guanidino-β-D-xylofuranosyl}-6-chloropurine] | > 100 µM | 27.6 µM | > 100 µM | > 100 µM | 73.7 µM | inhibition at 50 µM [7]: 39.1 ± 0.9%; BChE inhibitory activity, fold higher than that of galantamine [6]: ca. 10 fold; BChE type of inhibition [6]: mixed-type; Ki ([6]; competitive component): 0.89 ± 0.08 µM; inhibition at 50 µM [6]: 83.8 ± 1.3%; BChE Ki′ ([6]; uncompetitive component): 2.96 ± 0.39 µM; Ki ([6]; uncompetitive component, listed as N^9 regioisomer): 2.96 µM
11 | CC(=O)OC1C(OCc2ccccc2)C(CNC(=NC(=O)OC(C)(C)C)NC(=O)OC(C)(C)C)OC1n1cnc2ncnc(Cl)c21 [Compound 11, 7-(2-O-acetyl-3-O-benzyl-5-deoxy-5-[N′,N′′-bis(tert-butoxycarbonyl)]guanidino-β-D-xylofuranosyl)-6-chloropurine] | 43.7 µM | 24.5 µM | 64.1 µM | 12.1 µM | 24.1 µM | cytotoxicity in MCF-7 cells, fold lower than tamoxifen [1]: 1.6 fold; effect against DU-145 cells, fold higher than cisplatin [2]: 4 fold; inhibition at 50 µM [7]: 34.6 ± 1.4%; BChE Ki, fold higher than that of the N^9-counterpart [6]: ca. 2 fold; BChE inhibitory activity, fold higher than that of galantamine [6]: ~4 fold; BChE type of inhibition [6]: mixed-type; Ki ([6]; competitive component): 2.34 ± 0.2 µM; inhibition at 50 µM [6]: 65.2 ± 0.9%; BChE Ki′ ([6]; uncompetitive component): 10.6 ± 1.4 µM
